Values joined by “and” are separate entries in the source; they are usually repeats but may differ in a detail not shown here. Identical values can stand only once. Like-named read-outs stand apart in the source and are kept apart here.

Series [1] addresses T1, KPC-2 (Klebsiella pneumoniae, UniProt Q9F663). It is filed as biochemical.
Series [2] concerns the target T2, NDM-1 (Klebsiella pneumoniae, UniProt C7C422). It is filed as biochemical.
Another series addresses IMP-26 (Pseudomonas aeruginosa, UniProt D0V558). The series is classed as biochemical. The following applies: hydrolysis by IMP-26.
For series [3], the target named is T3, OXA-48 (Klebsiella pneumoniae, UniProt Q6XEC0).
The target in series [4] is T4, OXA-23 (Acinetobacter baumannii, UniProt Q9L4P2).
The target in another series is OXA-24 (Acinetobacter baumannii, UniProt Q8RLA6).
The target in another series is OXA-58 (Acinetobacter baumannii, UniProt Q2TR58).
Series [5] concerns the target T5, VIM-1 (Pseudomonas aeruginosa, UniProt A0A0F7KYQ8).
Series [6] has as its target T6, IMP-1 (Serratia marcescens, UniProt P52699).
Series [7] addresses T7, SHV-12 (Klebsiella pneumoniae, UniProt P0AD64, E235K/G234S/L31Q). The series is classed as biochemical.
A further series addresses TEM-43 (Escherichia coli, UniProt P62593, E102K/M180T/R162H, species not given). The series is classed as biochemical. The following applies: hydrolysis by TEM-43.
The next series addresses KPC-3 (Klebsiella pneumoniae, UniProt Q9F663, H272Y). The series is classed as biochemical. Particulars: hydrolysis by KPC-3.
In the next series the target is BKC-1 (Klebsiella pneumoniae, UniProt A0A0F6QEY8). The experiment in a line: Km and kcat of nitrocefin or imipenem hydrolysis. It is filed as biochemical. Particulars: hydrolysis by BKC-1.
Another series addresses FRI-1 (Enterobacter cloacae, UniProt A0A0M5L4T8). The experiment in a line: Km and kcat of nitrocefin or imipenem hydrolysis. The series is classed as biochemical. The following applies: hydrolysis by FRI-1.
For another series, the target named is SME-2 (Serratia marcescens, UniProt P52682, V207Q). The series is classed as biochemical.
The target in the next series is TEM-10 (Escherichia coli, UniProt P62593, E237K/R162S). Particulars: hydrolysis by TEM-10.
For series [8], the system named is O=C(Cc1cccs1)N[C@@H]1C(=O)N2C(C(=O)O)=C(/C=C/c3ccc([N+](=O)[O-])cc3[N+](=O)[O-])CS[C@H]12. Put plainly: purified protein, by the assay type.
A further series deals with CTX-M-14 (Escherichia coli, UniProt Q9L5C7). Put plainly: IC50 of beta-lactamase inhibition (nitrocefin hydrolysis). The series is classed as biochemical. Particulars: read-out: IC50 (nM) of drug.
For series [9], the target named is T7, SHV-12. The series is described as above. The series is classed as biochemical. Particulars: read-out: IC50 (nM) of drug.
In another series the target is P99 (Enterobacter cloacae, UniProt P05364). Described as above. It is filed as biochemical. Here is the method: (§1) […]; Initial rates of reaction were calculated and exported to Prism software to calculate IC50 values using the “dose-response—inhibition, variable slope (four parameters)” equation. Ki values were calculated by the method of Waley ([31]). This method was previously used to calculate Ki values for boronic fast-on–fast-off BLIs.

Series [10] has as its target T5, VIM-1. The description is as above. The following applies: IC50 (nM) of drug. It is filed as biochemical.
Series [11] deals with T6, IMP-1. Put plainly: IC50 of beta-lactamase inhibition (imipenem hydrolysis). It is filed as biochemical.
The target of series [12] is T2, NDM-1. Put plainly: biochemical.
The target of series [13] is T1, KPC-2. Put plainly: IC50 of beta-lactamase inhibition (nitrocefin hydrolysis). Particulars: KPC-2, class A; substrate nitrocefin; 10 min preincubation at 37°C; read-out: IC50 (nM) of drug. It is filed as biochemical.
In another series the target is CTX-M-15 (Escherichia coli, UniProt Q9EXV5). The description is as above. It is filed as biochemical. Particulars: read-out: IC50 (nM) of drug. Here is the method:
as §1

The target of series [14] is T3, OXA-48. Described as above. The series is classed as biochemical, Enterobacteriaceae. Particulars: read-out: IC50 (nM) of drug.
Series [15] deals with T4, OXA-23. Described as above. The series is classed as biochemical. Particulars: read-out: IC50 (nM) of drug.
Where [16] appears, read: P99, class C, substrate nitrocefin, 10 min preincubation at 37°C, read-out: IC50 (nM) of drug.

Turning to `C[C@@H](O)[C@H]1C(=O)N2C(C(=O)O)=C(SCCN=CN)C[C@H]12` [Imipenem, imipenem], the Km worked out at 70 µM at KPC-2 [1]; 206 µM at NDM-1 [2]; 1.5 µM on OXA-48 [3]; 6.6 µM on OXA-23 [4]; 1.2 µM at OXA-24; 1.3 µM at OXA-58. Besides, the Km on VIM-1 [5] worked out at 13 µM; at IMP-1 [6], 66 µM. Further, the kcat on KPC-2 [1] came to 39 s⁻¹; on NDM-1 [2], 96 s⁻¹; on IMP-26, 35 s⁻¹; at OXA-48 [3], 1.7 s⁻¹; at OXA-23 [4], 0.7 s⁻¹; at OXA-24, 1.9 s⁻¹. Moreover, the catalytic constant (kcat) at OXA-58 is 0.66 s⁻¹; on VIM-1 [5], 15 s⁻¹.

Take `O=C(Cc1cccs1)N[C@@H]1C(=O)N2C(C(=O)O)=C(/C=C/c3ccc([N+](=O)[O-])cc3[N+](=O)[O-])CS[C@H]12` [Nitrocefin, nitrocefin]: the Km at SHV-12 [7] was 5.5 µM; on KPC-2 [1], 49 µM; at SME-2 it was 59 µM; at NDM-1 [2] it was 1.6 µM. In addition, the kcat at SHV-12 [7] (hydrolysis by SHV-12) amounted to 73 s⁻¹; on TEM-43, 175 s⁻¹; at KPC-2 [1] (hydrolysis by KPC-2) it was 206 s⁻¹; on KPC-3, 182 s⁻¹; at BKC-1 it was 721 s⁻¹; at FRI-1, 176 s⁻¹. Moreover, the kcat on SME-2 (hydrolysis by SME-2) stood at 352 s⁻¹; on NDM-1 [2] (hydrolysis by NDM-1), 27 s⁻¹; at IMP-26, 325 s⁻¹; at TEM-10 it was 18 s⁻¹.

Regarding (Pseudomonas aeruginosa PAO1), in series [8], the Km is 55 µM, the kcat came out at 133 s⁻¹ and the kcat/Km came to 2.4e+06 M⁻¹ s⁻¹.

On to (Serratia marcescens), for which, in series [8], the Km was 26 µM, the catalytic constant (kcat) turned out to be 229 s⁻¹ and the kcat/Km was 8.9e+06 M⁻¹ s⁻¹.

As to (Escherichia coli), in [8], the Km is 22 µM and 24 µM; the kcat was 334 s⁻¹ and 341 s⁻¹; the kcat/Km was 1.5e+07 M⁻¹ s⁻¹.

As for `O=C(NC1CCNCC1)[C@@H]1CC[C@@H]2CN1C(=O)N2OS(=O)(=O)O` [Relebactam, relebactam], the IC50 was 34 ± 10 nM on CTX-M-14; 330 ± 50 nM at SHV-12 [9]; 36 ± 4 nM on P99 (setting [16]); greater than 160000 nM against VIM-1 [10]; greater than 160 µM against IMP-1 [11]; greater than 160 µM on NDM-1 [12].

For (Enterobacter cloacae), in [8], the Km turned out to be 100 µM, the catalytic constant (kcat) was found to be 479 s⁻¹ and the kcat/Km is 4.8e+06 M⁻¹ s⁻¹.

With `O=C(O)C[C@@H]1CC[C@H](NC(=O)Cc2cccs2)B(O)O1` [Vaborbactam, vaborbactam], the IC50 stood at 110 ± 30 nM at KPC-2 [13]; 110 ± 40 nM on CTX-M-14; 56 ± 11 nM at SHV-12 [9]; 92 ± 13 nM on CTX-M-15; 88 ± 38 nM at P99 (setting [16]); 6900 nM at OXA-48 [14]. The concentration for half-maximal inhibition (IC50) at OXA-23 [15] is 120000 nM; against VIM-1 [10], greater than 160000 nM; on IMP-1 [11] it was greater than 160 µM; at NDM-1 [12], greater than 160 µM.

(Acinetobacter baumannii): in series [8], the Km is 62 µM and 28 µM and 34 µM; the kcat was 357 s⁻¹ and 208 s⁻¹ and 518 s⁻¹; the kcat/Km is 5.8e+06 M⁻¹ s⁻¹ and 7.6e+06 M⁻¹ s⁻¹ and 1.5e+07 M⁻¹ s⁻¹.

Consider (Klebsiella pneumoniae), for which, in [8], the Km was 29 µM, the kcat worked out at 406 s⁻¹ and the catalytic efficiency (kcat/Km) came out at 1.4e+07 M⁻¹ s⁻¹.

Turning to `NC(=O)[C@@H]1CC[C@@H]2CN1C(=O)N2OS(=O)(=O)O` [Avibactam, avibactam], the concentration for half-maximal inhibition (IC50) on CTX-M-14 was 1.4 ± 0.4 nM; at SHV-12 [9], 0.61 ± 0.19 nM; at CTX-M-15, 0.56 ± 0.25 nM; against P99 (IC50 (nM) of drug) it was 26 ± 7 nM; against VIM-1 [10], greater than 160000 nM; on IMP-1 [11], greater than 160 µM. Also, on NDM-1 [12], the IC50 was greater than 160 µM.

For orientation: Km means the concentration of substrate that gives half-maximal velocity. The term kcat denotes the number of substrate molecules converted per active site and unit of time at saturation. What is called kcat/Km is the turnover number divided by the Michaelis constant. The IC50 is the concentration needed to halve the response being measured.

The values are drawn from paper PMC7269513 (Antimicrobial Agents and Chemotherapy, 2020).
